A short description of assay [1]: Inhibition of murine Phosphatidylinositol 3-kinase. Details: species or system Mus musculus; call rule not given here.
The subject of another assay is HT-29. As to the kind of experiment: Inhibition of colony formation of […] human colon carcinoma cell lines. It counts as functional, cell-based.
Assay [2] is described as follows: Inhibition of murine Phosphatidylinositol 3-kinase (No effect). The arrangement: species or system Mus musculus.

The source of these data is ChEMBL document CHEMBL1128572, “Synthesis and biology of 1D-3-deoxyphosphatidylinositol: a putative antimetabolite of phosphatidylinositol-3-phosphate and an inhibitor of cancer cell colony formation” (J Med Chem, 1995).

What is called IC50 is the concentration that gives 50% inhibition. A high value points to a need for much substance. As to `CCCCCCCCCCCCCCCC(=O)OCC(COP(=O)(O)OC1C(O)C(O)C(O)C(F)C1O)OC(=O)CCCCCCCCCCCCCCC` (centres undefined), the IC50 in assay [1] is 30 µM; in the assay on HT-29, 37 µM.

As to `CCCCCCCCCCCCCCCC(=O)OCC(COP(=O)(O)O[C@H]1[C@@H](O)[C@@H](O)[C@H](O)C[C@H]1O)OC(=O)CCCCCCCCCCCCCCC` (some centres undefined), the IC50 entry in assay [2] is “Not Active”; with HT-29, 35 µM.
